These results are taken from ChEMBL document CHEMBL1158633, “Synthesis and biological activity of alpha-glucosyl C24:0 and C20:2 ceramides” (2010).

The test has as its system iNKT. The experiment in a line: Induction of cellular expansion in human iNKT cells at 250 nM after 8 days. It counts as functional.
Consider `CCCCC/C=C\C/C=C\CCCCCCCCCC(=O)N[C@@H](CO[C@H]1O[C@H](CO)[C@@H](O)[C@H](O)[C@H]1O)[C@H](O)[C@H](O)CCCCCCCCCCCCCC`, for which the Activity was 33%. To `CCCCC/C=C\C/C=C\CCCCCCCCCC(=O)N[C@@H](CO[C@H]1O[C@H](CO)[C@H](O)[C@H](O)[C@H]1O)[C@H](O)[C@H](O)CCCCCCCCCCCCCC` belongs 37%; to `CCCCCCCCCCCCCCCCCCCCCCCCCC(=O)N[C@@H](CO[C@H]1O[C@H](CO)[C@H](O)[C@H](O)[C@H]1O)[C@H](O)[C@H](O)CCCCCCCCCCCCCC` [RGI-7000], 34%.
